The values below come from patent US20240124417A1, “COMPOUNDS USEFUL AS IMMUNOMODULATORS” (Bristol-Myers Squibb Company, priority 2019, published 2024).

The IC50 is the point on the concentration scale where inhibition reaches its midpoint.

The target in the experiment is T1, PD-1/PD-L1 (Homo sapiens, UniProt Q9NZQ7).
T1 construct: TVMV protease site linker (C); made in house; host or cells: HEK293T cells
T1 sequence (Q9NZQ7 18-239): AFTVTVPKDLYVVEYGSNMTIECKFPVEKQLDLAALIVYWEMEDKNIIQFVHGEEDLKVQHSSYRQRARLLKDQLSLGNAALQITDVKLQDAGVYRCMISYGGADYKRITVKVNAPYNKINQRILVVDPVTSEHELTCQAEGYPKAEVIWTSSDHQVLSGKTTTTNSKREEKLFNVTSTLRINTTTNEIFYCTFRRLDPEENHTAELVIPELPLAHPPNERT
The experiment can be described thus: PD-1/PD-L1 Homogenous Time-Resolved Fluorescence (HTRF) binding assay. As to conditions: PD-L1-His 10 nM, PD-1-Ig 20 nM. An outline of the steps: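 Inhibitors pre-incubated 15 min with PD-L1-His extracellular domain (10 nM final) in dPBS with 0.1% BSA and 0.05% Tween-20, then PD-1-Ig (20 nM final) added for a further 15 min. Read-out by HTRF with europium cryptate anti-Ig (1 nM) and APC anti-His (20 nM). Related pairs: PD-1-Ig/PD-L2-His (20/5 nM), CD80-His/PD-L1-Ig (100/10 nM).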
Compound `Cc1c(COc2cc(OCc3cncc(C#N)c3)c(CN3CCc4[nH]cnc4C3)cc2Cl)cccc1-c1cccc(OCCCN2CC[C@@H](O)C2)c1C` [Example 2515, (R)-5-((4-chloro-5-((3′-(3-(3-hydroxypyrrolidin-1-yl)propoxy)-2,2′-dimethyl-[1,1′-biphenyl]-3-yl)methoxy)-2-((1,4,6,7-tetrahydro-5H-imidazo[4,5-c]pyridin-5-yl)methyl)phenoxy)methyl)nicotinonitrile] yielded an IC50 of 3.8 nM.
As for `Cc1c(COc2cc(OCc3cncc(C#N)c3)c(CNCCc3nc4cc(Cl)ccc4[nH]3)cc2Cl)cccc1-c1cccc(OCCCN2CC[C@@H](O)C2)c1C` [Example 2516, (R)-5-((4-chloro-2-(((2-(5-chloro-1H-benzo[d]imidazol-2-yl)ethyl)amino)methyl)-5-((3′-(3-(3-hydroxypyrrolidin-1-yl)propoxy)-2,2′-dimethyl-[1,1′-biphenyl]-3-yl)methoxy)phenoxy)methyl)nicotinonitrile], the figure is 4.5 nM; as for `Cc1c(COc2cc(OCc3cncc(C#N)c3)c(CN(C)CCc3nc4cc(Cl)ccc4[nH]3)cc2Cl)cccc1-c1cccc(OCCCN2CC[C@@H](O)C2)c1C` [Example 2517, (R)-5-((4-chloro-2-(((2-(5-chloro-1H-benzo[d]imidazol-2-yl)ethyl)(methyl)amino)methyl)-5-((3′-(3-(3-hydroxypyrrolidin-1-yl)propoxy)-2,2′-dimethyl-[1,1′-biphenyl]-3-yl)methoxy)phenoxy)methyl)nicotinonitrile], 12.4 nM; as for `Cc1c(COc2cc(OCc3cncc(C#N)c3)c(CN(C)CCc3cc[nH]n3)cc2Cl)cccc1-c1cccc(OCCCN2CC[C@@H](O)C2)c1C` [Example 2518, (R)-5-((2-(((2-(1H-pyrazol-3-yl)ethyl)(methyl)amino)methyl)-4-chloro-5-((3′-(3-(3-hydroxypyrrolidin-1-yl)propoxy)-2,2′-dimethyl-[1,1′-biphenyl]-3-yl)methoxy)phenoxy)methyl)nicotinonitrile], 4.4 nM.
On to `Cc1c(COc2cc(OCc3cncc(C#N)c3)c(CNCCc3ncn[nH]3)cc2Cl)cccc1-c1cccc(OCCCN2CC[C@@H](O)C2)c1C` [Example 2519, (R)-5-((2-(((2-(1H-1,2,4-triazol-5-yl)ethyl)amino)methyl)-4-chloro-5-((3′-(3-(3-hydroxypyrrolidin-1-yl)propoxy)-2,2′-dimethyl-[1,1′-biphenyl]-3-yl)methoxy)phenoxy)methyl)nicotinonitrile], for which the IC50 came to 1 nM.
In turn, `Cc1c(COc2cc(OCc3cncc(C#N)c3)c(CNCc3csc(N)n3)cc2Cl)cccc1-c1cccc(OCCCN2CC[C@@H](O)C2)c1C` [Example 2520, (R)-5-((2-((((2-aminothiazol-4-yl)methyl)amino)methyl)-4-chloro-5-((3′-(3-(3-hydroxypyrrolidin-1-yl)propoxy)-2,2′-dimethyl-[1,1′-biphenyl]-3-yl)methoxy)phenoxy)methyl)nicotinonitrile] gave an IC50 of 3.1 nM.
For `Cc1c(COc2cc(OCc3cncc(C#N)c3)c(CN(C)Cc3csc(N)n3)cc2Cl)cccc1-c1cccc(OCCCN2CC[C@@H](O)C2)c1C` [Example 2521, (R)-5-((2-((((2-aminothiazol-4-yl)methyl)(methyl)amino)methyl)-4-chloro-5-((3′-(3-(3-hydroxypyrrolidin-1-yl)propoxy)-2,2′-dimethyl-[1,1′-biphenyl]-3-yl)methoxy)phenoxy)methyl)nicotinonitrile], the 50% inhibitory concentration (IC50) stood at 0.7 nM.
In turn, `Cc1onc(-c2ccccc2)c1CNCc1cc(Cl)c(OCc2cccc(-c3cccc(OCCCN4CC[C@@H](O)C4)c3C)c2C)cc1OCc1cncc(C#N)c1` [Example 2522, (R)-5-((4-chloro-5-((3′-(3-(3-hydroxypyrrolidin-1-yl)propoxy)-2,2′-dimethyl-[1,1′-biphenyl]-3-yl)methoxy)-2-((((5-methyl-3-phenylisoxazol-4-yl)methyl)amino)methyl)phenoxy)methyl)nicotinonitrile] gave an IC50 of 23.2 nM.
`Cc1onc(-c2ccccc2)c1CN(C)Cc1cc(Cl)c(OCc2cccc(-c3cccc(OCCCN4CC[C@@H](O)C4)c3C)c2C)cc1OCc1cncc(C#N)c1` [Example 2523, (R)-5-((4-chloro-5-((3′-(3-(3-hydroxypyrrolidin-1-yl)propoxy)-2,2′-dimethyl-[1,1′-biphenyl]-3-yl)methoxy)-2-((methyl((5-methyl-3-phenylisoxazol-4-yl)methyl)amino)methyl)phenoxy)methyl)nicotinonitrile] showed a half-inhibitory concentration (IC50) of 178 nM.
As to `Cc1c(COc2cc(OCc3cncc(C#N)c3)c(CNCc3cn[nH]c3)cc2Cl)cccc1-c1cccc(OCCCN2CC[C@@H](O)C2)c1C` [Example 2524, (R)-5-((2-((((1H-pyrazol-4-yl)methyl)amino)methyl)-4-chloro-5-((3′-(3-(3-hydroxypyrrolidin-1-yl)propoxy)-2,2′-dimethyl-[1,1′-biphenyl]-3-yl)methoxy)phenoxy)methyl)nicotinonitrile], the IC50 came out at 5.5 nM.
As to `Cc1c(COc2cc(OCc3cncc(C#N)c3)c(CN(C)Cc3cn[nH]c3)cc2Cl)cccc1-c1cccc(OCCCN2CC[C@@H](O)C2)c1C` [Example 2525, (R)-5-((2-((((1H-pyrazol-4-yl)methyl)(methyl)amino)methyl)-4-chloro-5-((3′-(3-(3-hydroxypyrrolidin-1-yl)propoxy)-2,2′-dimethyl-[1,1′-biphenyl]-3-yl)methoxy)phenoxy)methyl)nicotinonitrile], the IC50 is 2.2 nM.
Compound `Cc1noc(C)c1CNCc1cc(Cl)c(OCc2cccc(-c3cccc(OCCCN4CC[C@@H](O)C4)c3C)c2C)cc1OCc1cncc(C#N)c1` [Example 2526, (R)-5-((4-chloro-2-((((3,5-dimethylisoxazol-4-yl)methyl)amino)methyl)-5-((3′-(3-(3-hydroxypyrrolidin-1-yl)propoxy)-2,2′-dimethyl-[1,1′-biphenyl]-3-yl)methoxy)phenoxy)methyl)nicotinonitrile] returned an IC50 of 3 nM.
The compound `Cc1noc(C)c1CN(C)Cc1cc(Cl)c(OCc2cccc(-c3cccc(OCCCN4CC[C@@H](O)C4)c3C)c2C)cc1OCc1cncc(C#N)c1` [Example 2527, (R)-5-((4-chloro-2-((((3,5-dimethylisoxazol-4-yl)methyl)(methyl)amino)methyl)-5-((3′-(3-(3-hydroxypyrrolidin-1-yl)propoxy)-2,2′-dimethyl-[1,1′-biphenyl]-3-yl)methoxy)phenoxy)methyl)nicotinonitrile] displayed an IC50 of 5.4 nM.
Turning to `Cc1cc(CNCc2cc(Cl)c(OCc3cccc(-c4cccc(OCCCN5CC[C@@H](O)C5)c4C)c3C)cc2OCc2cncc(C#N)c2)no1` [Example 2528, (R)-5-((4-chloro-5-((3′-(3-(3-hydroxypyrrolidin-1-yl)propoxy)-2,2′-dimethyl-[1,1′-biphenyl]-3-yl)methoxy)-2-((((5-methylisoxazol-3-yl)methyl)amino)methyl)phenoxy)methyl)nicotinonitrile], the IC50 amounted to 3.1 nM.
Next, `Cc1cc(CN(C)Cc2cc(Cl)c(OCc3cccc(-c4cccc(OCCCN5CC[C@@H](O)C5)c4C)c3C)cc2OCc2cncc(C#N)c2)no1` [Example 2529, (R)-5-((4-chloro-5-((3′-(3-(3-hydroxypyrrolidin-1-yl)propoxy)-2,2′-dimethyl-[1,1′-biphenyl]-3-yl)methoxy)-2-((methyl((5-methylisoxazol-3-yl)methyl)amino)methyl)phenoxy)methyl)nicotinonitrile]: 1.1 nM; `Cc1c(COc2cc(OCc3cncc(C#N)c3)c(CNCc3nccs3)cc2Cl)cccc1-c1cccc(OCCCN2CC[C@@H](O)C2)c1C` [Example 2530, (R)-5-((4-chloro-5-((3′-(3-(3-hydroxypyrrolidin-1-yl)propoxy)-2,2′-dimethyl-[1,1′-biphenyl]-3-yl)methoxy)-2-(((thiazol-2-ylmethyl)amino)methyl)phenoxy)methyl)nicotinonitrile]: 6.2 nM; `Cc1c(COc2cc(OCc3cncc(C#N)c3)c(CNCc3cncs3)cc2Cl)cccc1-c1cccc(OCCCN2CC[C@@H](O)C2)c1C` [Example 2531, (R)-5-((4-chloro-5-((3′-(3-(3-hydroxypyrrolidin-1-yl)propoxy)-2,2′-dimethyl-[1,1′-biphenyl]-3-yl)methoxy)-2-(((thiazol-5-ylmethyl)amino)methyl)phenoxy)methyl)nicotinonitrile]: 3.4 nM.
Consider `Cc1c(COc2cc(OCc3cncc(C#N)c3)c(CNCCc3c[nH]cn3)cc2Cl)cccc1-c1cccc(OCCCN2CC[C@@H](O)C2)c1C` [Example 2532, (R)-5-((2-(((2-(1H-imidazol-4-yl)ethyl)amino)methyl)-4-chloro-5-((3′-(3-(3-hydroxypyrrolidin-1-yl)propoxy)-2,2′-dimethyl-[1,1′-biphenyl]-3-yl)methoxy)phenoxy)methyl)nicotinonitrile], for which the IC50 turned out to be 4.8 nM.
As for `Cc1c(COc2cc(OCc3cncc(C#N)c3)c(CN(C)Cc3nccs3)cc2Cl)cccc1-c1cccc(OCCCN2CC[C@@H](O)C2)c1C` [Example 2533, (R)-5-((4-chloro-5-((3′-(3-(3-hydroxypyrrolidin-1-yl)propoxy)-2,2′-dimethyl-[1,1′-biphenyl]-3-yl)methoxy)-2-((methyl(thiazol-2-ylmethyl)amino)methyl)phenoxy)methyl)nicotinonitrile], the figure is 2.7 nM.
As for `Cc1c(COc2cc(OCc3cncc(C#N)c3)c(CN(C)Cc3cncs3)cc2Cl)cccc1-c1cccc(OCCCN2CC[C@@H](O)C2)c1C` [Example 2534, (R)-5-((4-chloro-5-((3′-(3-(3-hydroxypyrrolidin-1-yl)propoxy)-2,2′-dimethyl-[1,1′-biphenyl]-3-yl)methoxy)-2-((methyl(thiazol-5-ylmethyl)amino)methyl)phenoxy)methyl)nicotinonitrile], the figure is 3.4 nM.
